Like-named read-outs stand apart in the source and are kept apart here.

One may read the EC50 as the concentration at which the effect is half-maximal.

The target in this test is CFTR-mediated chloride transport in human intestinal epithelial enteroid cells (Homo sapiens, UniProt P13569). The test is described as follows: Membrane potential dye, Enteroid Assay A. It counts as cell-based. As to conditions: for EC50: read-out: Ent. A EC50. In a few lines: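 Membrane potential dye (20 μM methyl oxonol, with 30 μM CaCCinh-A01 and 30 μM Chicago Sky Blue) loaded 25 min at room temperature into ROCK-inhibitor-seeded human enteroid cells. Chloride-free stimulation buffer triggered transport, followed by 15 min fluorescence. % Activity relative to 3 μM/3 μM/300 nM triple-combination control.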

The mark [1] stands for this setting: enteroid cells incubated with test compound 18-24 hours, acute 10 μM forskolin and 300 nM N-[2,4-bis(1,1-dimethylethyl)-5-hydroxyphenyl]-1,4-dihydro-4-oxoquinoline-3-carboxamide.
[2] abbreviates: percentage of chloride transport of triple combination control (3 μM N-[(6-amino-2-pyridyl)sulfonyl]-6-(3-fluoro-5-isobutoxy-phenyl)-2-[(4S)-2,2,4-trimethylpyrrolidin-1-yl]pyridine-3-carboxamide based).

CFTR-mediated chloride transport in human intestinal epithelial enteroid cells, sequence (P13569 with tags, fused parts or gaps DEL508-508): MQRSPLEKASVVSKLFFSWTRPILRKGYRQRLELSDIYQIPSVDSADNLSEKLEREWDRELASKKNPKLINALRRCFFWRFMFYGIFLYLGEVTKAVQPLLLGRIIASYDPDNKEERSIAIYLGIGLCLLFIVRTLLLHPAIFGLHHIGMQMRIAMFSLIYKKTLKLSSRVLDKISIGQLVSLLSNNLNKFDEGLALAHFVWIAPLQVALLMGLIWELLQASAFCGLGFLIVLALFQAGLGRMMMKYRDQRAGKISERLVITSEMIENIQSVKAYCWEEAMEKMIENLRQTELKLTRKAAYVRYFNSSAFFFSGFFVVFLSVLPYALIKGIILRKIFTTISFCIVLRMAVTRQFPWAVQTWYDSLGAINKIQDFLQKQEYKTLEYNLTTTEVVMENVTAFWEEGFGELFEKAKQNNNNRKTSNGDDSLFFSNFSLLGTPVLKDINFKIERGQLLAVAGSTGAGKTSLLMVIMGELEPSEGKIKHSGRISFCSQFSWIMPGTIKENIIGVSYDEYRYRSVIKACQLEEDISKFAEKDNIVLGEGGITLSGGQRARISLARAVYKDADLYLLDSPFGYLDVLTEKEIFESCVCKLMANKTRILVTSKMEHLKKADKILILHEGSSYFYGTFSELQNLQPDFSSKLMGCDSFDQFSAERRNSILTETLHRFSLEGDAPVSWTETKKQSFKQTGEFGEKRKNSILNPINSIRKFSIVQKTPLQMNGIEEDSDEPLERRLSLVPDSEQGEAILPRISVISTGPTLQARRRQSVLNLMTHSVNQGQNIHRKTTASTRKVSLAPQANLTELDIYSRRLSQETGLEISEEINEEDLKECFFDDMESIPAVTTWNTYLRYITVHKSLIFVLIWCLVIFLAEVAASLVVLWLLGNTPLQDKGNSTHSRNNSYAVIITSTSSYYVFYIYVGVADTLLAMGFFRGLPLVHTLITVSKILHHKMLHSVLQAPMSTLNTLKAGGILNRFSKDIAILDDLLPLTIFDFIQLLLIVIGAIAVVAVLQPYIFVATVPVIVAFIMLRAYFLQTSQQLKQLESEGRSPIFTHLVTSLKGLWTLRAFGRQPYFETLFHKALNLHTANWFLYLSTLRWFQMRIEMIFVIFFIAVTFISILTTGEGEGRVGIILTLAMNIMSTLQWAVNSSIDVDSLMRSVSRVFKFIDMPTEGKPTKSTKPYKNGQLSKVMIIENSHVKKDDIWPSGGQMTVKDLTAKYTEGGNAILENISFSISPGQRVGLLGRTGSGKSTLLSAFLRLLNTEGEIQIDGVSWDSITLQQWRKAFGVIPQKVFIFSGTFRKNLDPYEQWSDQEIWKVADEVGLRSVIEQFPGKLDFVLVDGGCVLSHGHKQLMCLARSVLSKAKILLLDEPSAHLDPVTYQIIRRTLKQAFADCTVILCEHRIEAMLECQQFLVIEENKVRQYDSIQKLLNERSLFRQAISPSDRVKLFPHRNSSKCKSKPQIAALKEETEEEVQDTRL

As to `Cc1cccc(C)c1-c1cc2nc(n1)NS(=O)(=O)c1cccc(c1)C(=O)N1CCN(C3CCOCC3)C[C@H](C1)O2` [Compound 28], where the note is “Enteroid Assay A”, the “Ent. A Max Activity (%)” value was “+++ (+++ is >600%)” and the EC50 lay within 3000 to 30000 nM.
As for `Cc1cccc(C)c1-c1cc2nc(n1)NS(=O)(=O)c1cccc(c1)C(=O)N1CCN(C(=O)OC(C)(C)C)C[C@@H]1CO2` [Compound 315], the EC50 under setting [1] was under 1000 nM. The “Ent. A Max Activity (%)” value under setting [2] is given as “++ (++ is 30-60%)”.
In the case of `Cc1cccc(C)c1-c1cc2nc(n1)NS(=O)(=O)c1cccc(c1)C(=O)N1CC3CC(O2)C1C3` (centres unmarked) [Compound 365], the EC50 under setting [1] lay within 3000 to 30000 nM. Besides, the “Ent. A Max Activity (%)” value under setting [2] is “++ (++ is 30-60%)”.
The matching figures for `Cc1cccc(C)c1-c1cc2nc(n1)NS(=O)(=O)c1cccc(c1)C(=O)N1CCN(C)CC1CO2` (centres unmarked) [Compound 324]: 3000 to 30000 nM and “++ (++ is 30-60%)”.
The matching figures for `Cc1cccc(C)c1-c1cc2nc(n1)NS(=O)(=O)c1cccc(c1)CN1CC(COCC(C)(C)C)CC(C1)O2` (centres unmarked) [Compound 344]: under 1000 nM and “++ (++ is 30-60%)”.
On to `Cc1cccc(C)c1-c1cc2nc(n1)NS(=O)(=O)c1cccc(c1)C(=O)N1CCN(Cc3ccccc3C#N)CC(C1)O2` (centres unmarked) [Compound 54], for which the EC50 under setting [1] was under 1000 nM. Besides, under setting [2], the “Ent. A Max Activity (%)” value is “+++ (+++ is >60%)”.
Regarding `CCCCN1CCN2C[C@@H](C1)Oc1cc(-c3c(C)cccc3C)nc(n1)NS(=O)(=O)c1cccc(c1)C2=O` [Compound 32], under “Enteroid Assay A”, the “Ent. A Max Activity (%)” value is reported as “+++ (+++ is >600%)” and the EC50 is under 1000 nM.
As to `Cc1cccc(C)c1-c1cc2nc(n1)NS(=O)(=O)c1cccc(c1)C(=O)N1CCC[C@H](C1)O2` [Compound 336], the “Ent. A Max Activity (%)” value under setting [2] is “+ (+ is <300%)”.
Take `Cc1cccc(C)c1-c1cc2nc(n1)NS(=O)(=O)c1cccc(c1)C(=O)N1Cc3cc(C(C)(C)C)ccc3[C@H](O2)[C@H]1CC(C)C` [Compound 184, (16S,24R)-20-tert-Butyl-12-(2,6-dimethylphenyl)-24-(2-methylpropyl)-15-oxa-8λ^6-thia-1,9,11,25-tetraazapentacyclo[14.7.1.13,7.110,14.017,22]hexacosa-3,5,7(26),10,12,14(25),17,19,21-nonaene-2,8,8-trione]: where the note is “Enteroid Assay A”, the “Ent. A Max Activity (%)” value was “+++ (+++ is >600%)” and the concentration for a half-maximal effect (EC50) is under 1000 nM.
Turning to `Cc1cccc(C)c1-c1cc2nc(n1)NS(=O)(=O)c1cccc(c1)C(=O)N1CCN(CC3(NC(=O)OC(C)(C)C)CCCC3)C[C@@H]1CO2` [Compound 257], the half-maximal effective concentration (EC50) under setting [1] was under 1000 nM. Further, the “Ent. A Max Activity (%)” value under setting [2] is reported as “+++ (+++ is >60%)”.
Consider `Cc1cccc(C)c1-c1cc2nc(n1)NS(=O)(=O)c1cccc(c1)C(=O)N1C[C@@H](CN(C3CCC(F)(F)CC3)C[C@H]1CC(C)C)O2` [Compound 142], for which, for the setting “Enteroid Assay A”, the “Ent. A Max Activity (%)” value was “+++ (+++ is >600%)” and the 50% effective concentration (EC50) is under 1000 nM.
As for `CCC(CC)N1CCN2C[C@@H](C1)Oc1cc(-c3c(C)cccc3C)nc(n1)NS(=O)(=O)c1cccc(c1)C2=O` [Compound 11, (16R)-12-(2,6-Dimethylphenyl)-18-(1-ethylpropyl)-8,8-dioxo-15-oxa-8λ^6-thia-1,9,11,18,22-pentazatetracyclo[14.4.1.13,7.110,14]tricosa-3,5,7(23),10,12,14(22)-hexaen-2-one], where the note is “Enteroid Assay A”, the “Ent. A Max Activity (%)” value is recorded as “+++ (+++ is >600%)” and the EC50 was under 1000 nM.
The matching figures for `Cc1cccc(C)c1-c1cc2nc(n1)NS(=O)(=O)c1cccc(c1)CN1C[C@@H](CN(Cc3ccccc3)CC1=O)O2` (stereo in doubt) [Compound 144]: “++ (++ is 30-60%)” and under 1000 nM.
As to `Cc1cccc(C)c1-c1cc2nc(n1)NS(=O)(=O)c1cccc(c1)C(=O)N1CCCC(O2)C1CC(C)C` (single isomer, unassigned) [Compound 231, 18-(2,6-Dimethylphenyl)-22-(2-methylpropyl)-2-oxa-14λ^6-thia-7,15,17,20-tetraazatetracyclo[14.3.1.13,7.19,13]docosa-1(20),9(21),10,12,16,18-hexaene-8,14,14-trione], the EC50 under setting [1] was under 1000 nM. Moreover, the “Ent. A Max Activity (%)” value under setting [2] is “+++ (+++ is >60%)”.
As for `Cc1cccc(C)c1-c1cc2nc(n1)NS(=O)(=O)c1cccc(c1)C(=O)N1CCCN(Cc3ccccc3)CC(C1)O2` (centres unmarked) [Compound 205, 18-Benzyl-12-(2,6-dimethylphenyl)-15-oxa-8λ^6-thia-1,9,11,18,23-pentaazatetracyclo[14.5.1.13,7.110,14]tetracosa-3,5,7(24),10,12,14(23)-hexaene-2,8,8-trione], under “Enteroid Assay A”, the “Ent. A Max Activity (%)” value is recorded as “++ (++ is 30-60%)” and the EC50 is under 1000 nM.
`Cc1cccc(C)c1-c1cc2nc(n1)NS(=O)(=O)c1cccc(c1)C(=O)N1CC(CCC1c1ccccc1)O2` (single isomer, unassigned) [Compound 225, 18-(2,6-dimethylphenyl)-6-phenyl-2-oxa-14λ^6-thia-7,15,17,20-tetraazatetracyclo[14.3.1.13,7.19,13]docosa-1(19),9(21),10,12,16(20),17-hexaene-8,14,14-trione]: the EC50 under setting [1] is under 1000 nM. Further, the “Ent. A Max Activity (%)” value under setting [2] is reported as “++ (++ is 30-60%)”.
The matching figures for `Cc1cccc(C)c1-c1cc2nc(n1)NS(=O)(=O)c1cccc(c1)C(=O)N1CCN(Cc3ccn[nH]3)CC(C1)O2` (centres unmarked) [Compound 48]: 3000 to 30000 nM and “++ (++ is 30-60%)”.
In the same order, the values of `Cc1cccc(C)c1-c1cc2nc(n1)NS(=O)(=O)c1cccc(c1)C(=O)N1CCN(CCc3ccccc3)CC1CO2` (centres unmarked) [Compound 311] are under 1000 nM and “++ (++ is 30-60%)”.
`CCN1CCN2C[C@@H](C1)Oc1cc(-c3c(C)cccc3C)nc(n1)NS(=O)(=O)c1cccc(c1)C2=O` [Compound 74, (16R)-12-(2,6-Dimethylphenyl)-18-ethyl-15-oxa-8λ^6-thia-1,9,11,18,22-pentaazatetracyclo[14.4.1.13,7.110,14]tricosa-3(23),4,6,10,12,14(22)-hexaene-2,8,8-trione]: where the note is “Enteroid Assay A”, the “Ent. A Max Activity (%)” value is reported as “+++ (+++ is >600%)” and the half-maximal effective concentration (EC50) fell in the range of 1000 to 3000 nM.
Take `Cc1cccc(C)c1-c1cc2nc(n1)NS(=O)(=O)c1cccc(c1)C(=O)N1CCN(C(=O)C(C)(C)C)C[C@H](C1)O2` [Compound 80, (16R)-12-(2,6-Dimethylphenyl)-18-(2,2-dimethylpropanoyl)-15-oxa-8λ^6-thia-1,9,11,18,22-pentaazatetracyclo[14.4.1.13,7.110,14]tricosa-3(23),4,6,10,12,14(22)-hexaene-2,8,8-trione]: under “Enteroid Assay A”, the “Ent. A Max Activity (%)” value is “+++ (+++ is >600%)” and the 50% effective concentration (EC50) was in the range of 3000 to 30000 nM.
On to `Cc1cccc(C)c1-c1cc2nc(n1)NS(=O)(=O)c1cccc(c1)C(=O)N1CCN(Cc3ccccc3)C(CO2)C1` (centres unmarked) [Compound 178, 18-Benzyl-12-(2,6-dimethylphenyl)-15-oxa-8λ^6-thia-1,9,11,18,22-pentaazatetracyclo[15.3.1.13,7.110,14]tricosa-3,5,7(23),10(22),11,13-hexaene-2,8,8-trione], for which, under setting [1], the EC50 was under 1000 nM. In addition, the “Ent. A Max Activity (%)” value under setting [2] is listed as “++ (++ is 30-60%)”.
